Where a name gives a salt, the structure may show the parent alone. Read-outs that look alike come from different tables or passages of the source.
Key:
[1] = system: experimental bronchial spasms caused by acetyl choline; assay: Bronchospasmolytic action, acetyl choline-induced bronchial spasm (Konzett and Roessler); format: in vivo, guinea pig; conditions: Cavia porcellus, urethane-anaesthetized guinea pigs, dose reducing spasm to 50%, read-out: Bronchospasmolytic action (ED50) as compared with acetyl choline
Description: (§1) The test substances were administered in an aqueous solution either by the intravenous (i.v.) or the intraduodenal (i.d.) route. Water-insoluble compounds were applied i.d. in carboxymethyl cellulose suspensions.

[2] = system: experimental bronchial spasms caused by histamine; assay: Bronchospasmolytic action, histamine-induced bronchial spasm (Konzett and Roessler); format: in vivo, guinea pig; conditions: Cavia porcellus, urethane-anaesthetized guinea pigs, dose reducing spasm to 50%, read-out: Bronchospasmolytic action (ED50) as compared with histamine
Description: as §1

in vivo = conditions: mouse, ip
Description: The LD50 values or the LD50 ranges were determined according to common standards via the mortality occurring over 7 days with NMRI mice following a single intraperitoneal (i.p.) administration.

[3] = system: experimental bronchial spasms caused by serotonin; assay: Bronchospasmolytic action, serotonin-induced bronchial spasm (Konzett and Roessler); format: in vivo, guinea pig; conditions: Cavia porcellus, urethane-anaesthetized guinea pigs, dose reducing spasm to 50%, read-out: Bronchospasmolytic action (ED50) as compared with serotonin
Description: as §1

Structure (SMILES) | ED50 ([1]; iv) [mg/kg] | ED50 ([2]; iv) [mg/kg] | LD50 at 168 h (in vivo) [mg/kg] | ED50 ([3]; iv) [mg/kg] | ED50 ([1]; i.d. (intraduodenal)) [mg/kg] | ED50 ([2]; i.d. (intraduodenal)) [mg/kg] | ED50 ([3]; i.d. (intraduodenal)) [mg/kg]
COC(CNc1cc(C)nc(C)c1[N+](=O)[O-])OC [Example 17] | 3 to 10 | > 10 | 400 to 800 | – | – | – | –
Cc1cc(NCc2ccc(S(N)(=O)=O)cc2)c([N+](=O)[O-])c(C)n1 [Example 23] | 1 to 3 | 3 to 10 | 600 to 1200 | – | – | – | –
Cc1cc(N2CCSC(C)C2)c([N+](=O)[O-])c(C)n1 (centres unmarked) [Example 15] | 3 to 10 | 3 to 10 | 150 to 300 | – | – | – | –
CCCc1cc(N2CCSCC2)c([N+](=O)[O-])c(CCC)n1 [Example 14] | 1 to 3 | 3 | 300 to 600 | 3 to 10 | – | – | –
Cc1cc(NCCCl)c([N+](=O)[O-])c(C)n1 [Example 18] | 1 to 3 | 3 | 150 to 300 | 1 to 3 | – | – | –
Cc1cc(NCCF)c([N+](=O)[O-])c(C)n1 [Example 32] | 3 to 10 | 1 | 150 to 300 | 1 to 3 | – | – | –
COc1ccc(CNc2cc(C)nc(C)c2[N+](=O)[O-])cc1 [Example 24] | 1 to 3 | 0.3 to 1 | > 600 | 1 to 3 | – | – | –
Cc1cc(N2CCOCC2)c([N+](=O)[O-])c(C)n1 [Example 9] | 3 to 10 | 1 to 3 | 300 to 1000 | – | – | – | –
Cc1cc(N2CCSCC2)c([N+](=O)[O-])c(C)n1 [Example 1, 4-(2,6-Dimethyl-3-nitro-4-pyridyl)-thiomorpholinohydrochloride] | 1.47 | 1.05 | 160 | 1.32 | 4.13 | 2.6 | 2.52
Cc1cc(NCc2ccc3c(c2)OCO3)c([N+](=O)[O-])c(C)n1 [Example 22] | 3 to 10 | 3 | – | – | – | – | –
Cc1cc(N2CCSCC2)c(C#N)c(C)n1 [Example 13] | 3 | 1 to 3 | 150 to 300 | 3 | 3 to 10 | 1 to 3 | –
Cn1c(=O)c2[nH]cnc2n(C)c1=O [theophylline-ethylene diamine, reference compound] | 8.3 | 5.6 | – | 7.3 | 10 to 20 | – | –

From patent publication US4289765A, “4-Aminopyridines and medicaments containing the same” (Hoechst Aktiengesellschaft, priority 1979, dated 1981)
